Measurements as given in patent US20220273659A1, “HETEROCYCLIC COMPOUNDS AS KINASE INHIBITORS” (NUVATION BIO INC., priority 2019, published 2022).

Experiments:
[1] = target: T1, CDK2 (cyclin E1) (Homo sapiens, UniProt P24941); test: LanthaScreen Eu Kinase Binding Assay; details: read-out: CDK2/E IC50
T1 construct: purchased Invitrogen Life Technologies (assay service)
Description: 0.16 μL of 100×test compound in 100% DMSO (at specific solutions) were mixed with 3.84 μL of Kinase Buffer (50 mM HEPES pH 7.5, 0.01% BRIJ-35, 10 mM MgCl2, 1 mM EGTA), 8.0 μL of 2× Kinase (2.5 nM)/Antibody (Eu-anti-GST, 2 nM) Mixture and 4.0 μL of 4×Tracer (Tracer 236, 100 nM). The plates were shaken for 30 seconds, and incubated for 60 minutes at room temperature. The plates were read on fluorescence plate reader with Dual emission at 615 nm and 665 nm.
The following equations were used for LanthaScreen Eu Kinase Binding Assay Data Analysis. Percent inhibition (100-% activity) was fitted to the “four-parameter logistic model” in XLfit for determination of IC50 values.

[2] = target: T2, CDK12 (cyclin K) (Homo sapiens, UniProt Q9NYV4); test: KinaseProfiler radiometric protein kinase assay; format: biochemical
T2 construct: purchased Eurofins Pharma Discovery (assay service)
Description: IC50 values of compounds against CDK12 (cyclin K) were determined by KinaseProfiler™ radiometric protein kinase assay at Eurofins Pharma Discovery (Dundee, UK). Compounds were prepared to 50× final assay concentration in 100% DMSO. This working stock of the compound was added to the assay well as the first component in each reaction. CDK12/Cyclin K was diluted in buffer (20 mM TRIS, 0.2 mM EDTA, 0.1%-mercaptoethanol, 0.01% Brij-35, 5% glycerol, mg/ml BSA) prior to addition to the reaction mix. CDK12/Cyclin K was incubated with 20 mM Tris/HCl pH 8.5, 0.2 mM EDTA, 300 μM SRSRSRSRSRSRSR, 10 mM Magnesium acetate and [γ-^33P-ATP] (specific activity and concentration as required). The reaction was initiated by the addition of the Mg/ATP mix. After incubation for 120 minutes at room temperature, the reaction was stopped by the addition of phosphoric acid to a concentration of 0.5%. 10 μl of the stopped reaction was spotted onto a P30 filtermat and washed four times for 4 minutes in 0.425% phosphoric acid and once in methanol prior to drying and scintillation counting. Results were calculated as a percentage of the mean kinase activity in positive control samples. Data were fitted in XLfit for determination of IC50 values.

T2 sequence (Q9NYV4 whole entry): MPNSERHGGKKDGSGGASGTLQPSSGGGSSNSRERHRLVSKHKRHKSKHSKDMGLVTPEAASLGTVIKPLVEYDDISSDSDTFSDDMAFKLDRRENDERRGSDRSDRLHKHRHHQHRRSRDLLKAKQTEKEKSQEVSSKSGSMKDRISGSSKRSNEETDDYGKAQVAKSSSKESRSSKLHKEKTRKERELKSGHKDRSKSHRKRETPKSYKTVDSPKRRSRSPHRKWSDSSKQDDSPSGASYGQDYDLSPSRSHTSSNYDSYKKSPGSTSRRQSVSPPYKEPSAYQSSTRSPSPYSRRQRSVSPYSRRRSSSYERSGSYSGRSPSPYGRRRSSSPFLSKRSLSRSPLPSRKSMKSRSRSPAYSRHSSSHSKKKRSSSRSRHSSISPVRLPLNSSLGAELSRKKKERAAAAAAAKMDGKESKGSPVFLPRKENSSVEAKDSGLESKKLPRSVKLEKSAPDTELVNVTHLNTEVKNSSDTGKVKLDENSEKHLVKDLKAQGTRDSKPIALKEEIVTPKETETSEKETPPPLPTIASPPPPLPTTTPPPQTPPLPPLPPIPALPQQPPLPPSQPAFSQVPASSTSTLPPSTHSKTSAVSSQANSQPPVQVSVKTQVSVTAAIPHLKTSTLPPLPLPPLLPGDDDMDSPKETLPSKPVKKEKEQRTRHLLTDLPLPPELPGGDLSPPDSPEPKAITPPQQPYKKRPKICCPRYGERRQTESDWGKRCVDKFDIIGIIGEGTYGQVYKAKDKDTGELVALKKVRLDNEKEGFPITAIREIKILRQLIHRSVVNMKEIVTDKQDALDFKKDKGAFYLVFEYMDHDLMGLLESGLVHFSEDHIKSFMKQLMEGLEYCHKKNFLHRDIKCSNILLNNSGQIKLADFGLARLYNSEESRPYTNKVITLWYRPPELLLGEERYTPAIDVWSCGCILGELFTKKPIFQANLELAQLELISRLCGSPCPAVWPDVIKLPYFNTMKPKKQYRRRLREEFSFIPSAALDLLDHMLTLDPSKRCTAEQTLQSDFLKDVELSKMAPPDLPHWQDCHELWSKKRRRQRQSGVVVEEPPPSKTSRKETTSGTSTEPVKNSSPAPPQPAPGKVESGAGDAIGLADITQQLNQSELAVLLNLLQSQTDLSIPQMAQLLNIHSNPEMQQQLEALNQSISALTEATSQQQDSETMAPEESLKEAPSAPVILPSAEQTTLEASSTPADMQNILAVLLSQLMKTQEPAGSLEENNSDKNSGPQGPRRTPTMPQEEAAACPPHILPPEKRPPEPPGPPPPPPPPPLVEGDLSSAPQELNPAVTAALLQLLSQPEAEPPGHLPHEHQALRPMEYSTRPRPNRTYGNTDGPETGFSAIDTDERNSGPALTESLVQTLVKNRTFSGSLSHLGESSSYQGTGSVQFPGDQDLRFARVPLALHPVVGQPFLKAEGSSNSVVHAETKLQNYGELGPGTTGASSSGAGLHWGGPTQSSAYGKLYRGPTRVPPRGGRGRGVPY
T2 sequence (O75909 whole entry partner): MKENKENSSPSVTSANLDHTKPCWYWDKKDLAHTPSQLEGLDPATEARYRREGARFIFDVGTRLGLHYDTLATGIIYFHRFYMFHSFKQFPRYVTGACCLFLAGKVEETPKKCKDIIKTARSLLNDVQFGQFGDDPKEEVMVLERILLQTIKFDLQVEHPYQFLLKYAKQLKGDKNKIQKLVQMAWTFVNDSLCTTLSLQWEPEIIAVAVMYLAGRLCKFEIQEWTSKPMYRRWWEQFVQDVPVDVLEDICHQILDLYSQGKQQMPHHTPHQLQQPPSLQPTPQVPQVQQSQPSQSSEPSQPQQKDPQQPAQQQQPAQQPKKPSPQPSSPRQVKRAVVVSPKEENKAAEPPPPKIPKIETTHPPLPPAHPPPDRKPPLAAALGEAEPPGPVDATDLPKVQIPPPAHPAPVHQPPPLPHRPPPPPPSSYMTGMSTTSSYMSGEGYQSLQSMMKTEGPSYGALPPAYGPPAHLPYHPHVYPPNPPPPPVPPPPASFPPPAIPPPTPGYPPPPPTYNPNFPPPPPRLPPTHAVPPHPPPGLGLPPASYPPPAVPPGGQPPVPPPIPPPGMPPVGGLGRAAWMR

IC50 [1]: 74 nM | IC50 [2]: > 10000 nM
SMILES: N#Cc1cc2cnc(Nc3ccc4c(c3)CCNC4)nc2n(C2CCCC2)c1=O [Compound No. 31, 8-cyclopentyl-7-oxo-2-((1,2,3,4-tetrahydroisoquinolin-6-yl)amino)-7,8-dihydropyrido[2,3-d]pyrimidine-6-carbonitrile]
